From patent US11357779B2 (G1 Therapeutics, Inc., priority 2018, dated 2022)
Where two headings read alike, the source gives them in different places.

Assay: Noncompartmental pharmacokinetic parameters (Cmax, Tmax, AUC, Racc) in QD and BID cohorts of Form B
Type: in vivo, human
Conditions: human, plasma, oral
Experimental: Analysis of plasma concentration versus time data for calculation of standard pharmacokinetic (PK) parameters following oral administration was conducted using Phoenix WinNonlin version 6.3 using actual blood sampling times.
The following pharmacokinetic parameters were calculated from the concentration versus time data obtained in Example 1 for each of the above QD (200 mg, 300 mg, 400 mg, 500 mg, or 650 mg dosed) and BID (100 mg, 150 mg, or 200 mg doses) Form B of Compound II dosage cohorts: • Cmax—the observed peak plasma concentration determined from the plasma concentration versus time data obtained on Day 1 and Day 29, as applicable; • Tmax—the time to reach the observed peak plasma concentration from the plasma concentration versus time data obtained on Day 1 and Day 29, as applicable; • AUC—area under the plasma concentration versus time curve during a dosing interval on Day 1 and Day 29, as applicable; and • Racc—accumulation ratio calculated as AUCDay 29/AUCDay 1.

For CC(C)N1CCN(c2ccc(Nc3ncc4cc5n(c4n3)C3(CCCCC3)CNC5=O)nc2)CC1 [Compound I, 2′-((5-(4-isopropylpiperazin-1-yl)pyridin-2-yl)amino)-7′,8′-dihydro-6′H-spiro[cyclohexane-1,9′-pyrazino[1′,2′:1,5]pyrrolo[2,3-d]pyrimidin]-6′-one], the Cmax (300 mg, Cohort 2, 300 mg QD of Form B, Day 1, upon exclusion of data for patient that vomited immediately after dosing, read-out: Cmax, Mean) was 55.2 ng/mL, the AUC(0-t) (300 mg, Cohort 2, 300 mg QD of Form B, Day 1, read-out: AUClast, Mean) was 413 ng·h/mL and the AUC(0-t) (300 mg, Cohort 2, 300 mg QD of Form B, Day 1, read-out: AUClast, Median) was 554 ng·h/mL. It also gave a Cmax (300 mg, Cohort 2, 300 mg QD of Form B, Day 1, read-out: Cmax, Mean) of 40.2 ng/mL, a Cmax (300 mg, Cohort 2, 300 mg QD of Form B, Day 1, read-out: Cmax, Median) of 44.3 ng/mL and a Tmax (300 mg, Cohort 2, 300 mg QD of Form B, Day 1, read-out: Tmax, Mean) of 4.67 h. For the same compound, the Tmax (300 mg, Cohort 2, 300 mg QD of Form B, Day 1, read-out: Tmax, Median) was 4 h, the AUC(0-t) (300 mg, Compound I, 300 mg QD of Form B, Cohort 2, Day 29, read-out: AUClast (Mean)) was 592 ng·h/mL and the AUC(0-t) (300 mg, Compound I, 300 mg QD of Form B, Cohort 2, Day 29, read-out: AUClast (Median)) was 604 ng·h/mL. It also gave a Cmax (300 mg, Compound I, 300 mg QD of Form B, Cohort 2, Day 29, read-out: Cmax (Mean)) of 47 ng/mL, a Cmax (300 mg, Compound I, 300 mg QD of Form B, Cohort 2, Day 29, read-out: Cmax (Median)) of 40.5 ng/mL and a Tmax (300 mg, Compound I, 300 mg QD of Form B, Cohort 2, Day 29, read-out: Tmax (Mean)) of 6 h. For the same compound, the Tmax (300 mg, Compound I, 300 mg QD of Form B, Cohort 2, Day 29, read-out: Tmax (Median)) was 4 h, the AUC(0-t) (400 mg, Cohort 3, 400 mg QD of Form B, Day 1, read-out: AUClast, Mean) was 202 ng·h/mL and the AUC(0-t) (400 mg, Cohort 3, 400 mg QD of Form B, Day 1, read-out: AUClast, Median) was 183 ng·h/mL. The Cmax (400 mg, Cohort 3, 400 mg QD of Form B, Day 1, read-out: Cmax, Mean) was 20.1 ng/mL, the Cmax (400 mg, Cohort 3, 400 mg QD of Form B, Day 1, read-out: Cmax, Median) was 21.6 ng/mL and the Tmax (400 mg, Cohort 3, 400 mg QD of Form B, Day 1, read-out: Tmax, Mean) was 6 h. For the same compound, the Tmax (400 mg, Cohort 3, 400 mg QD of Form B, Day 1, read-out: Tmax, Median) was 6 h, the AUC(0-t) (400 mg, Compound I, 400 mg QD of Form B, Cohort 3, Day 29, read-out: AUClast (Mean)) was 278 ng·h/mL and the AUC(0-t) (400 mg, Compound I, 400 mg QD of Form B, Cohort 3, Day 29, read-out: AUClast (Median)) was 348 ng·h/mL. It also gave a Cmax (400 mg, Compound I, 400 mg QD of Form B, Cohort 3, Day 29, read-out: Cmax (Mean)) of 19 ng/mL, a Cmax (400 mg, Compound I, 400 mg QD of Form B, Cohort 3, Day 29, read-out: Cmax (Median)) of 23.5 ng/mL and a Tmax (400 mg, Compound I, 400 mg QD of Form B, Cohort 3, Day 29, read-out: Tmax (Mean)) of 5.33 h. The Tmax (400 mg, Compound I, 400 mg QD of Form B, Cohort 3, Day 29, read-out: Tmax (Median)) was 6 h, the AUC(0-t) (500 mg, Cohort 4, 500 mg QD of Form B, Day 1, read-out: AUClast, Mean) was 577 ng·h/mL and the AUC(0-t) (500 mg, Cohort 4, 500 mg QD of Form B, Day 1, read-out: AUClast, Median) was 611 ng·h/mL. The Cmax (500 mg, Cohort 4, 500 mg QD of Form B, Day 1, read-out: Cmax, Mean) was 48.9 ng/mL, the Cmax (500 mg, Cohort 4, 500 mg QD of Form B, Day 1, read-out: Cmax, Median) was 49.6 ng/mL and the Tmax (500 mg, Cohort 4, 500 mg QD of Form B, Day 1, read-out: Tmax, Mean) was 5.75 h. The Tmax (500 mg, Cohort 4, 500 mg QD of Form B, Day 1, read-out: Tmax, Median) was 6 h, the AUC(0-t) (500 mg, Compound I, 500 mg QD of Form B, Cohort 4, Day 29, read-out: AUClast (Mean)) was 607 ng·h/mL and the AUC(0-t) (500 mg, Compound I, 500 mg QD of Form B, Cohort 4, Day 29, read-out: AUClast (Median)) was 591 ng·h/mL. It also gave a Cmax (500 mg, Compound I, 500 mg QD of Form B, Cohort 4, Day 29, read-out: Cmax (Mean)) of 43.2 ng/mL, a Cmax (500 mg, Compound I, 500 mg QD of Form B, Cohort 4, Day 29, read-out: Cmax (Median)) of 45 ng/mL and a Tmax (500 mg, Compound I, 500 mg QD of Form B, Cohort 4, Day 29, read-out: Tmax (Mean)) of 5.33 h. The Tmax (500 mg, Compound I, 500 mg QD of Form B, Cohort 4, Day 29, read-out: Tmax (Median)) was 6 h, the AUC(0-t) (650 mg, Cohort 5, 650 mg QD of Form B, Day 1, read-out: AUClast, Mean) was 799 ng·h/mL and the AUC(0-t) (650 mg, Cohort 5, 650 mg QD of Form B, Day 1, read-out: AUClast, Median) was 805 ng·h/mL. It also gave a Cmax (650 mg, Cohort 5, 650 mg QD of Form B, Day 1, read-out: Cmax, Mean) of 62.5 ng/mL, a Cmax (650 mg, Cohort 5, 650 mg QD of Form B, Day 1, read-out: Cmax, Median) of 67 ng/mL and a Tmax (650 mg, Cohort 5, 650 mg QD of Form B, Day 1, read-out: Tmax, Mean) of 7.67 h. The Tmax (650 mg, Cohort 5, 650 mg QD of Form B, Day 1, read-out: Tmax, Median) was 8 h, the AUC(0-t) (650 mg, Compound I, 650 mg QD of Form B, Cohort 5, Day 29, read-out: AUClast (Mean)) was 607 ng·h/mL and the AUC(0-t) (650 mg, Compound I, 650 mg QD of Form B, Cohort 5, Day 29, read-out: AUClast (Median)) was 591 ng·h/mL. It also gave a Cmax (650 mg, Compound I, 650 mg QD of Form B, Cohort 5, Day 29, read-out: Cmax (Mean)) of 43.2 ng/mL, a Cmax (650 mg, Compound I, 650 mg QD of Form B, Cohort 5, Day 29, read-out: Cmax (Median)) of 45 ng/mL and a Tmax (650 mg, Compound I, 650 mg QD of Form B, Cohort 5, Day 29, read-out: Tmax (Mean)) of 5.33 h. It also gave a Tmax (650 mg, Compound I, 650 mg QD of Form B, Cohort 5, Day 29, read-out: Tmax (Median)) of 6 h.
